The subject of data set [1] is Spodoptera littoralis (Egyptian cotton leaf worm). The data set is described as follows: Example B1: activity against Spodoptera littoralis, sprayed cotton leaf discs. Conditions: foliar, 72 h, application rate 200 ppm, L1 larvae, 3 days after infestation, read-out: control of Spodoptera littoralis (at least one of mortality, anti-feedant effect, growth inhibition). The class given is in vivo. As to the method:
Example B1: Activity Against Spodoptera littoralis (Egyptian Cotton Leaf Worm)
Cotton leaf discs were placed on agar in 24-well microtiter plates and sprayed with aqueous test solutions prepared from 10′000 ppm DMSO stock solutions. After drying the leaf discs were infested with five L1 larvae. The samples were assessed for mortality, anti-feedant effect, and growth inhibition in comparison to untreated samples 3 days after infestation. Control of Spodoptera littoralis by a test sample is when at least one of mortality, anti-feedant effect, and growth inhibition is higher than the untreated sample.

Data set [2] shares this test system. The data set is described as follows: Example B2: activity against Spodoptera littoralis, systemic via lettuce grown on treated agar. Type of data set: in vivo. Conditions: 144 h, test rate 12.5 ppm, in agar, uptake by lettuce roots, Spodoptera eggs, 6 days after infestation, read-out: effect in at least one of the three categories (mortality, anti-feedancy, or growth inhibition). An excerpt: Example B2: Activity Against Spodoptera littoralis (Egyptian Cotton Leaf Worm)
Test compounds were applied by pipette from 10′000 ppm DMSO stock solutions into 24-well plates and mixed with agar. Lettuce seeds were placed on the agar and the multi well plate was closed by another plate which contains also agar. After 7 days the roots have absorbed the compound and the lettuce has grown into the lid plate. The lettuce leafs were now cut off into the lid plate. Spodoptera eggs were pipetted through a plastic stencil on a humid gel blotting paper and the plate closed with it.
The samples were assessed for mortality, anti-feedant effect and growth inhibition in comparison to untreated samples 6 days after infestation.

Data set [3] deals with Plutella xylostella (diamond back moth). The data set is described as follows: Example B3: activity against Plutella xylostella, treated artificial diet. Conditions: 120 h, application rate 200 ppm, L2 larvae, 5 days after infestation, read-out: effect in at least one of the two categories (mortality or growth inhibition). Type of data set: in vivo. As to the method: Example B3: Activity Against Plutella xylostella (Diamond Back Moth)
24-well microtiter plates with artificial diet were treated with aqueous test solutions prepared from 10′000 ppm DMSO stock solutions by pipetting. After drying, the plates were infested with L2 larvae (10 to 15 per well). The samples were assessed for mortality and growth inhibition in comparison to untreated samples 5 days after infestation.

Data set [4] has as its system Diabrotica balteata (corn root worm). Kind of data set: Example B4: activity against Diabrotica balteata, sprayed maize sprouts. Type of data set: in vivo. Conditions: 96 h, application rate 200 ppm, L2 larvae, 4 days after infestation, read-out: effect in at least one of the two categories (mortality or growth inhibition). As to the method: Example B4: Activity Against Diabrotica Balteata (Corn Root Worm)
Maize sprouts, placed on an agar layer in 24-well microtiter plates were treated with aqueous test solutions prepared from 10′000 ppm DMSO stock solutions by spraying. After drying, the plates were infested with L2 larvae (6 to 10 per well). The samples were assessed for mortality and growth inhibition in comparison to untreated samples 4 days after infestation.

The test system of data set [5] is Myzus persicae (green peach aphid). The data set is described as follows: Example B5: activity against Myzus persicae, sprayed sunflower leaf discs. Type of data set: in vivo. Conditions: foliar, 144 h, application rate 200 ppm, aphid population of mixed ages, 6 days after infestation. As to the method: Example B5: Activity Against Myzus persicae (Green Peach Aphid)
Sunflower leaf discs were placed on agar in a 24-well microtiter plate and sprayed with aqueous test solutions prepared from 10′000 ppm DMSO stock solutions. After drying, the leaf discs were infested with an aphid population of mixed ages. The samples were assessed for mortality 6 days after infestation.

Data set [6] concerns Euschistus heros (neotropical brown stink bug). The data set is described as follows: Example B9: activity against Euschistus heros, sprayed soybean leaf. Type of data set: in vivo. Conditions: 120 h, application rate 200 ppm, N-2 nymphs, 5 days after infestation, read-out: effect in at least one of the two categories (mortality or growth inhibition). As to the method:
Example B9: Activity Against Euschistus heros(Neotropical Brown Stink Bug)
Soybean leaf on agar in 24-well microtiter plates were sprayed with aqueous test solutions prepared from 10′000 ppm DMSO stock solutions. After drying the leaf were infested with N-2 nymphs. The samples were assessed for mortality and growth inhibition in comparison to untreated samples 5 days after infestation.

The subject of data set [7] is Aedes aegypti (yellow fever mosquito). The data set is described as follows: Example B11: activity against Aedes aegypti, dry deposits in tissue culture plates. Type of data set: in vivo. Conditions: 200 ppm in ethanol, dry deposit, adult females, after 48 h and/or 24 h. On the procedure:
Example B11: Activity Against Aedes Aegypti (Yellow Fever Mosquito)
Test solutions, at an application rate of 200 ppm in ethanol, were applied to 12-well tissue culture plates. Once the deposits were dry, five, two to five days old adult female Aedes aegypti were added to each well, and sustained with a 10% sucrose solution in a cotton wool plug. Assessment of knockdown was made one hour after introduction, and mortality was assessed at 24 and 48 hours after introduction.

The test system of data set [8] is Frankliniella occidentalis (western flower thrips). The data set is described as follows: Example B7: activity against Frankliniella occidentalis, sprayed sunflower leaf discs. Type of data set: in vivo. Conditions: foliar, 168 h, application rate 200 ppm, population of mixed ages, 7 days after infestation. As to the method: Example B7: Activity Against Frankliniella occidentalis (Western Flower Thrips)
Sunflower leaf discs were placed on agar in 24-well microtiter plates and sprayed with aqueous test solutions prepared from […] stock solutions. After drying the leaf discs were infested with a Frankliniella population of mixed ages. The samples were assessed for mortality 7 days after infestation.

The test system of data set [9] is Bemisia tabaci (cotton white fly). The data set is described as follows: Example B8: activity against Bemisia tabaci, sprayed cotton leaf discs. Type of data set: in vivo. Conditions: foliar, 144 h, application rate 200 ppm, adult white flies, 6 days after incubation. On the procedure: Example B8: Activity Against Bemisia tabaci (Cotton White Fly)
Cotton leaf discs were placed on agar in 24-well microtiter plates and sprayed with aqueous test solutions prepared from 10′000 ppm DMSO stock solutions. After drying the leaf discs were infested with adult white flies. The samples were checked for mortality 6 days after incubation.

Data set [10] relates to Myzus persicae (green peach aphid). The data set is described as follows: Example B6: activity against Myzus persicae, roots of pea seedlings in test solution. Type of data set: in vivo. Conditions: 144 h, test rate 24 ppm, roots of infested pea seedlings in test solution, 6 days. As to the method:
Example B6: Activity Against Myzus persicae (Green Peach Aphid)
Roots of pea seedlings infested with an aphid population of mixed ages were placed directly in the aqueous test solutions prepared from 10′000 DMSO stock solutions. The samples were assessed for mortality 6 days after placing seedlings in test solutions.

Where only a bound is given, the exact number is not on record here.

The record followed here is US10512265B2, “Pesticidally active heterocyclic derivatives with sulphur containing substituents” (Syngenta Participations AG, priority 2015, dated 2019).

As for `CCS(=O)(=O)c1cc(-c2ncc(Cl)cn2)cnc1-c1ncc(-c2ccc(C(F)(F)F)nc2)n1C` [Compound P11], the mortality at 200 ppm in data set [1] and in data set [5] was at least 80% in each case. Moreover, the percent control (mortality, anti-feedancy or growth inhibition) at 12.5 ppm in data set [2] is at least 80%. Moreover, the percent effect (mortality or growth inhibition) at 200 ppm in [3], in data set [4] and in data set [6] was at least 80% each time. In data set [7], the pest or weed control (as a rule, the degree to which the test organism was suppressed or injured, in per cent) at 200 ppm is at least 80%.
On to `CCS(=O)(=O)c1cc(-c2ccc(C(F)(F)F)cc2)cnc1-c1ncc(-c2ccc(C(F)(F)F)nc2)n1C` [Compound P1, 3-ethylsulfonyl-2-[1-methyl-5-[6-(trifluoromethyl)-3-pyridyl]imidazol-2-yl]-5-[4-(trifluoromethyl)phenyl]pyridine], for which the mortality at 200 ppm in data set [1] and in [8] was at least 80% in each case. Also, the percent effect (mortality or growth inhibition) at 200 ppm in data set [3], in data set [4] and in [6] was at least 80% in each case. This compound also returned a pest or weed control at 200 ppm in data set [7] of at least 80%.
On to `CCS(=O)(=O)c1cc(-c2ccc(F)cc2)cnc1-c1ncc(-c2ccc(F)cc2)n1C` [Compound P4], for which the mortality at 200 ppm in data set [1], in data set [5] and in [9] was at least 80% throughout. In addition, the percent control (mortality, anti-feedancy or growth inhibition) at 12.5 ppm in data set [2] is at least 80%. For the same compound, the percent effect (mortality or growth inhibition) at 200 ppm in data set [3] and in [4] was at least 80% each time.
As to `CCS(=O)(=O)c1cc(-c2ccc(Cl)cc2)cnc1-c1ncc(-c2cccc(SC(F)(F)F)c2)n1C` [Compound P13], the mortality (in general, the share of the test organisms that died) at 200 ppm in data set [1] is at least 80%. Moreover, the percent effect (mortality or growth inhibition) at 200 ppm in data set [3] and in [4] was at least 80% each time.
For `CCS(=O)(=O)c1cc(-c2cccc(F)c2)cnc1-c1ncc(-c2cncc(C(F)(F)F)c2)n1C` [Compound P18], the melting point (usually the temperature of the solid-liquid transition) fell in the range of 155 to 157 °C.
`CCS(=O)(=O)c1cc(-c2ccc(Cl)cc2)cnc1-c1ncc(-c2ccc(S(=O)(=O)C(F)(F)F)cc2)n1C` [Compound P9]: the mortality at 200 ppm in data set [1] is at least 80%. The percent effect (mortality or growth inhibition) at 200 ppm in [3] and in data set [4] was at least 80% each time. Further, the pest or weed control at 200 ppm in [7] is at least 80%.
Regarding `CCS(=O)(=O)c1cc(-c2ncc(Cl)cn2)cnc1-c1ncc(-c2cnc(C(F)(F)F)nc2)n1C` [Compound P14], the melting point was in the range of 224 to 226 °C.
Consider `CCS(=O)(=O)c1cc(-c2ccc(Cl)cc2)cnc1-c1ncc(-c2ccc(SC(F)(F)F)cc2)n1C` [Compound P7], for which the mortality at 200 ppm in data set [1] was at least 80%. In addition, the percent effect (mortality or growth inhibition) at 200 ppm in [3] and in data set [4] was at least 80% throughout. The compound further registered a pest or weed control at 200 ppm in [7] of at least 80%.
Consider `CCS(=O)(=O)c1cc(-c2ccc(Cl)cc2)cnc1-c1ncc(-c2ccc(C(F)(F)F)cc2)n1C` [Compound P12], for which the mortality at 200 ppm in data set [1] and in data set [8] was at least 80% throughout. Further, the percent effect (mortality or growth inhibition) at 200 ppm in data set [3] and in data set [4] was at least 80% each time. This compound also registered a pest or weed control at 200 ppm in data set [7] of at least 80%.
Turning to `CCS(=O)(=O)c1cc(-c2ccccc2)cnc1-c1ncc(-c2ccc(C(F)(F)F)nc2)n1C` [Compound P6], the mortality at 200 ppm in [1], in data set [5] and in [8] was at least 80% throughout. For the same compound, the percent control (mortality, anti-feedancy or growth inhibition) at 12.5 ppm in [2] is at least 80%. Moreover, the percent effect (mortality or growth inhibition) at 200 ppm in data set [3] and in data set [4] was at least 80% throughout.
Regarding `CCS(=O)(=O)c1cc(-c2ncccn2)cnc1-c1ncc(-c2ccc(C(F)(F)F)nc2)n1C` [Compound P8], the mortality at 200 ppm in data set [1], in data set [5] and in data set [8] was at least 80% throughout. Moreover, in data set [2], the percent control (mortality, anti-feedancy or growth inhibition) at 12.5 ppm was at least 80%. Moreover, the percent effect (mortality or growth inhibition) at 200 ppm in data set [3], in [4] and in data set [6] was at least 80% throughout. This compound also returned a mortality at 24 ppm in data set [10] of at least 80%.
Regarding `CCS(=O)(=O)c1cc(-c2ncccn2)cnc1-c1ncc(-c2cncc(C(F)(F)F)c2)n1C` [Compound P10], the mortality at 200 ppm in data set [1], in [5] and in data set [8] was at least 80% each time. Moreover, the percent control (mortality, anti-feedancy or growth inhibition) at 12.5 ppm in [2] is at least 80%. Besides, the percent effect (mortality or growth inhibition) at 200 ppm in data set [3], in data set [4] and in data set [6] was at least 80% in each case. The same compound had a mortality at 24 ppm in [10] of at least 80%.
With `CCS(=O)(=O)c1cc(-c2ccc(C(F)(F)F)cc2)cnc1-c1ncc(-c2ccc(C(F)(F)F)cc2)n1C` [Compound P2, 3-ethylsulfonyl-2-[1-methyl-5-[4-(trifluoromethyl)phenyl]imidazol-2-yl]-5-[4-(trifluoromethyl)phenyl]pyridine], the mortality at 200 ppm in data set [1] and in data set [8] was at least 80% in each case. Besides, the percent effect (mortality or growth inhibition) at 200 ppm in [3] and in data set [4] was at least 80% in each case. The same compound returned a pest or weed control at 200 ppm in [7] of at least 80%.
Turning to `CCS(=O)(=O)c1cc(-c2cccc(F)c2)cnc1-c1ncc(-c2ccc(C(F)(F)F)nc2)n1C` [Compound P16], the melting point lay in the range of 170 to 172 °C.
Compound `CCS(=O)(=O)c1cc(-c2cccc(F)c2)cnc1-c1ncc(-c2cnc(C(F)(F)F)nc2)n1C` [Compound P17] showed a melting point of 193 to 195 °C.
Still for that read-out and setting: with `CCS(=O)(=O)c1cc(-c2ncccn2)cnc1-c1ncc(-c2cnc(C(F)(F)F)nc2)n1C` [Compound P15] the figure was 231 to 233 °C.
Regarding `CCS(=O)(=O)c1cc(-c2ccc(Cl)cc2)cnc1-c1ncc(-c2ccc(C(F)(F)F)nc2)n1C` [Compound P5], the mortality at 200 ppm in [1], in [5] and in [8] was at least 80% in each case. Besides, the percent effect (mortality or growth inhibition) at 200 ppm in data set [3], in data set [4] and in [6] was at least 80% throughout. Also, the pest or weed control at 200 ppm in [7] was at least 80%.
